Results as given in patent publication US8846704B2, “Thiopyrimidine-based compounds and uses thereof” (YM Biosciences Austraila Pty Ltd, priority 2007, dated 2014).

Target: T1, BaF3 TELJAK3 cells (Homo sapiens, UniProt P52333)
T1 construct: fused on or other part: TEL (ETV6) N-terminal part, coding nucleotides 1-487, serves as the oligomerising partner; It is fused through a Sal I site to the JAK3 kinase domain and expressed from pTRE2 in BaF3 cells bearing pTET-off; P41212 (Transcription factor ETV6)
T1 sequence (P52333 1-1124): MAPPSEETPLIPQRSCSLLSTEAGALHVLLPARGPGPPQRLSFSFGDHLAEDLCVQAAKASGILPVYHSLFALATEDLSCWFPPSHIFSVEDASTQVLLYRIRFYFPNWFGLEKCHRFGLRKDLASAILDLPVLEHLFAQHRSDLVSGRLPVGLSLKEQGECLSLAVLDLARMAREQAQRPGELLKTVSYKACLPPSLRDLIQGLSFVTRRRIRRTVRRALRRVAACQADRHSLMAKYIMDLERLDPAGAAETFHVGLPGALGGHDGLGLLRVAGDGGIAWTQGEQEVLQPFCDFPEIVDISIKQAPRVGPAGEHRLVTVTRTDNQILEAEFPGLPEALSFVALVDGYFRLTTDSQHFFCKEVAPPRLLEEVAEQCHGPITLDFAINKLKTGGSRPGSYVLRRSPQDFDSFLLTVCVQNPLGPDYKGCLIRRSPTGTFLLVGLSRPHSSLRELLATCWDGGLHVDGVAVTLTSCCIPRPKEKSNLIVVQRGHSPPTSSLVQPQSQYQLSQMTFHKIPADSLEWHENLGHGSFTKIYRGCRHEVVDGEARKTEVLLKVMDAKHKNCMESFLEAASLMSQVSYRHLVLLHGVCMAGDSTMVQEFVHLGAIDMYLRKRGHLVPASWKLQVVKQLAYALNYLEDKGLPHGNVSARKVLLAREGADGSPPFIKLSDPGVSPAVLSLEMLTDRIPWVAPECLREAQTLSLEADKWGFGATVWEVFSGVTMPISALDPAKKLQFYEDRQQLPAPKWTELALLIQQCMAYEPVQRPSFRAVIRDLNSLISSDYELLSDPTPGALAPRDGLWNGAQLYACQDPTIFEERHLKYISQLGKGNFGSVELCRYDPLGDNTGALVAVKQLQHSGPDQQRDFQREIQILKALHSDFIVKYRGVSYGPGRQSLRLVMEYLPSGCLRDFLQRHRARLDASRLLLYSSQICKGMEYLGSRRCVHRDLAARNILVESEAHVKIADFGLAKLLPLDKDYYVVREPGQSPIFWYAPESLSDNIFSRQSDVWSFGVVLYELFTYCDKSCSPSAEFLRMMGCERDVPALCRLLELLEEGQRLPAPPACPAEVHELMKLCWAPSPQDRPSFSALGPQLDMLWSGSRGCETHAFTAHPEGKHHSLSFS
Assay: Cellular screening, BaF3 TEL:JAK3 cells, Alamar Blue
Assay type: cell-based
Conditions: 40 hr, read-out: BafT_J3 IC50_nM
Method in brief: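 BaF3 cells carrying pTET-off and a TEL–JAK3 kinase-domain fusion, selected for growth-factor independence, were grown in DMEM with 10% Tet-approved FBS without WEHI 3B medium. Cells were exposed to compounds for 40 h at 37 °C, 5% CO2. Viability was read with Alamar Blue (4–6 h) at 544 nm.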

| Structure (SMILES) | GI50 [µM] |
| --- | --- |
| CC#CC(=O)Nc1ccc(Sc2nc(Nc3ccc(N4CCOCC4)cc3)ncc2C)cc1 [Compound 125, N-(4-(5-methyl-2-(4-morpholinophenylao)pyrimidin-4-ylthio)phenyl)but-2-ynamide] | < 5 |
| C=CC(=O)Nc1ccc(Sc2nc(Nc3ccc(N4CCOCC4)cc3)ncc2-c2ccccc2)cc1 [Compound 307, N-(4-(2-(4-morpholinophenylao)-5-phenylpyrimidin-4-ylthio)phenyl)acrylamide] | < 20 |
| C=CC(=O)Nc1ccc(Sc2nc(Nc3cccc(O)c3)ncc2C)cc1 [Compound 281, N-(4-(2-(3-hydroxyphenylao)-5-methylpyrimidin-4-ylthio)phenyl)acrylamide] | < 1 |
| C=CC(=O)Nc1ccc(Sc2ccnc(Nc3ccccc3)n2)cc1 [Compound 350, N-(4-(2-(phenylao)pyrimidin-4-ylthio)phenyl)acrylamide] | < 20 |
| C=CC(=O)Nc1ccc(Sc2ccnc(Nc3cccc([N+](=O)[O-])c3)n2)cc1 [Compound 361, N-(4-(2-(3-nitrophenylao)pyrimidin-4-ylthio)phenyl)acrylamide] | < 5 |
| Cc1cnc(Nc2ccc(N3CCOCC3)cc2)nc1Sc1ccc(N)cc1 [Compound 126, 4-(4-aophenylthio)-5-methyl-N-(4-morpholinophenyl)pyrimidin-2-ae] | < 5 |
| C=CC(=O)Nc1ccc(Sc2ccnc(Nc3ccc(OC)c(O)c3)n2)cc1 [Compound 97] | < 1 |
| C=CC(=O)Nc1ccc(Sc2ccnc(Nc3ccc4c(c3)OCO4)n2)cc1 [Compound 393, N-(4-(2-(benzo[d][1,3]dioxol-5-ylao)pyrimidin-4-ylthio)phenyl)acrylamide] | < 1 |
| C=CC(=O)Nc1ccc(Sc2ccnc(Nc3cccc(OC)c3)n2)cc1 [Compound 105, N-(4-(2-(3-methoxyphenylao)pyrimidin-4-ylthio)phenyl)acrylamide] | < 1 |
| Cc1cnc(Nc2ccc(N3CCOCC3)cc2)nc1Sc1ccc2c(c1)CCCN2 [Compound 166, 5-methyl-N-(4-morpholinophenyl)-4-(1,2,3,4-tetrahydroquinolin-6-ylthio)pyrimidin-2-ae] | < 20 |
| C=CC(=O)Nc1ccc(Sc2nc(Nc3ccc(N4CCC(C(=O)OCC)CC4)cc3)ncc2C)cc1 [Compound 292, ethyl 1-(4-(4-(4-acrylamidophenylthio)-5-methylpyrimidin-2-ylao)phenyl)piperidine-4-carboxylate] | < 5 |
| Cc1cnc(Nc2ccc(N3CCOCC3)cc2)nc1Sc1ccc(NC(=O)CCC(=O)O)cc1 [Compound 383, 4-(4-(5-methyl-2-(4-morpholinophenylao)pyrimidin-4-ylthio)phenylao)-4-oxobutanoic acid] | > 20 |
| CCC(=O)Nc1ccc(Sc2nc(Nc3ccc(N4CCOCC4)cc3)ncc2Cl)cc1 [Compound 347, N-(4-(5-chloro-2-(4-morpholinophenylao)pyrimidin-4-ylthio)phenyl)propionamide] | < 1 |
| CNC(=O)CCC(=O)Nc1ccc(Sc2nc(Nc3ccc(N4CCOCC4)cc3)ncc2C)cc1 [Compound 386, N1-methyl-N4-(4-(5-methyl-2-(4-morpholinophenylao)pyrimidin-4-ylthio)phenyl)succinamide] | > 20 |
| Cc1cnc(Nc2ccc(N3CCOCC3)cc2)nc1Sc1ccc(N2C(=O)CCC2=O)cc1 [Compound 384, 1-(4-(5-methyl-2-(4-morpholinophenylao)pyrimidin-4-ylthio)phenyl)pyrrolidine-2,5-dione] | > 20 |
| C=CC(=O)Nc1ccc(Sc2ccnc(Nc3ccc(S(N)(=O)=O)cc3)n2)cc1 [Compound 352, N-(4-(2-(4-sulfamoylphenylao)pyrimidin-4-ylthio)phenyl)acrylamide] | < 20 |
| Cc1cnc(Nc2ccc(N3CCOCC3)cc2)nc1Sc1ccc(N2C(=O)C=CC2=O)cc1 [Compound 390, 1-(4-(5-methyl-2-(4-morpholinophenylao)pyrimidin-4-ylthio)phenyl)-1H-pyrrole-2,5-dione] | < 5 |

| Structure (SMILES) | GI50 [µM] |
| --- | --- |
| C=CC(=O)Nc1ccc(Sc2nc(Nc3ccc(N4CCOCC4)cc3)ncc2C)c(Cl)c1C [Compound 171, N-(3-chloro-2-methyl-4-(5-methyl-2-(4-morpholinophenylao)pyrimidin-4-ylthio)phenyl)acrylamide] | < 5 |
| O=C(/C=C/Cl)Nc1ccc(Sc2ccnc(Nc3ccc(N4CCOCC4)cc3)n2)cc1 [Compound 342, (E)-3-chloro-N-(4-(2-(4-morpholinophenylao)pyrimidin-4-ylthio)phenyl)acrylamide] | < 5 |
| C=CC(=O)Nc1cccc(Sc2ccnc(Nc3ccc(OC)cc3)n2)c1 [Compound 120, N-(3-(2-(4-methoxyphenylao)pyrimidin-4-ylthio)phenyl)acrylamide] | < 1 |
| C=CC(=O)Nc1ccc(Sc2nc(Nc3ccc(N4CCOCC4)cc3)ncc2I)cc1 [Compound 313, N-(4-(5-iodo-2-(4-morpholinophenylao)pyrimidin-4-ylthio)phenyl)acrylamide] | < 1 |
| Cc1cnc(Nc2ccc(N3CCOCC3)cc2)nc1Sc1ccc(NC(=O)/C=C/C(=O)O)cc1 [Compound 387, (E)-4-(4-(5-methyl-2-(4-morpholinophenylao)pyrimidin-4-ylthio)phenylao)-4-oxobut-2-enoic acid] | > 20 |
| C=CC(=O)Nc1ccc(Sc2ccnc(Nc3ccc(S(=O)(=O)N4CCOCC4)c(OC)c3)n2)cc1 [Compound 373, N-(4-(2-(3-methoxy-4-(morpholinosulfonyl)phenylao)pyrimidin-4-ylthio)phenyl)acrylamide] | < 5 |
| N#CCC(=O)Nc1ccc(Sc2ccnc(Nc3ccc(N4CCC(N5CCCC5)CC4)cc3)n2)cc1 [Compound 88, 2-cyano-N-(4-(2-(4-(4-(pyrrolidin-1-yl)piperidin-1-yl)phenylao)pyrimidin-4-ylthio)phenyl)acetamide] | < 5 |
| C=CC(=O)Nc1ccc(Sc2nc(Nc3cccc(OCCCO)c3)ncc2C)cc1 [Compound 301, N-(4-(2-(3-(3-hydroxypropoxy)phenylao)-5-methylpyrimidin-4-ylthio)phenyl)acrylamide] | < 1 |
| CC(=O)Nc1ccc(Sc2ccnc(Nc3ccc(N4CCC(N5CCCC5)CC4)cc3)n2)cc1 [Compound 86, N-(4-(2-(4-(4-(pyrrolidin-1-yl)piperidin-1-yl)phenylao)pyrimidin-4-ylthio)phenyl)acetamide] | < 5 |
| C=CC(=O)Nc1ccc(Sc2ccnc(Nc3ccc(F)c(C#N)c3)n2)cc1 [Compound 354, N-(4-(2-(3-cyano-4-fluorophenylao)pyrimidin-4-ylthio)phenyl)acrylamide] | < 20 |
| C=CC(=O)Nc1ccc(Sc2ccnc(Nc3cccc(C#N)c3)n2)cc1 [Compound 118, N-(4-(2-(3-cyanophenylao)pyrimidin-4-ylthio)phenyl)acrylamide] | < 5 |
| COc1cc(Sc2ccnc(Nc3ccc(N4CCOCC4)cc3)n2)ccc1N [Compound 117, 4-(4-ao-3-methoxyphenylthio)-N-(4-morpholinophenyl)pyrimidin-2-ae] | > 20 |
| C=CC(=O)Nc1ccc(Sc2ccnc(Nc3ccc(N4CCC(N5CCCC5)CC4)cc3)n2)cc1 [Compound 87, N-(4-(2-(4-(4-(pyrrolidin-1-yl)piperidin-1-yl)phenylao)pyrimidin-4-ylthio)phenyl)acrylamide] | < 1 |
| C=CC(=O)Nc1ccc(Sc2ccnc(Nc3cccc(S(=O)(=O)NCc4ccccc4)c3)n2)cc1 [Compound 366, N-(4-(2-(3-(N-benzylsulfamoyl)phenylao)pyrimidin-4-ylthio)phenyl)acrylamide] | < 5 |
| C=CC(=O)Nc1ccc(Sc2ccnc(Nc3ccc(S(=O)(=O)NCc4ccccc4)cc3)n2)cc1 [Compound 368, N-(4-(2-(4-(N-benzylsulfamoyl)phenylao)pyrimidin-4-ylthio)phenyl)acrylamide] | < 5 |
| C=CC(=O)Nc1ccc(Sc2ccnc(Nc3ccc(N4CCS(=O)(=O)CC4)cc3)n2)cc1 [Compound 99, N-{4-[(2-{[4-(1,1-dioxo-1λ^6,4-thiomorpholin-4-yl)phenyl]ao}pyrimidin-4-yl)sulfanyl]phenyl}prop-2-enamide] | < 1 |
